This test deals with T1, glutathione S-transferase (GST)-fused full-length human Syk protein (Homo sapiens, UniProt P43405).
T1 construct: (GST)-fused full-length human Syk protein; GST (glutathione S-transferase); purchased Carna Biosciences
Nature of the test: Syk enzyme assay. The format is biochemical. In outline:
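GST-tagged full-length human Syk (baculovirus) preincubated with compound 15 min at room temperature (pH 7.0, 10 mM MgCl2), then reacted 40 min with 0.4 μM biotinylated peptide substrate and 27 μM ATP (final). Phosphorylation read by HTRF (615/665 nm) after EDTA stop; IC50 reported.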

Setting [1] is: Syk enzyme assay, Test Example 1, read-out: IC50 of Syk-inhibitory activity.
The mark [2] stands for this setting: read-out: Syk-inhibitory activity (IC50).

The structures appear in SMILES notation. Like-named read-outs stand apart in the source and are kept apart here.

What is called IC50 is the concentration at which inhibition is half-maximal. On to `CNc1cc(Nc2nc(N[C@@H]3CCCC[C@@H]3N)c(F)cc2C(N)=O)cc2cccnc12` (relative stereo) [Example 004-136, 6-(cis-2-aminocyclohexylamino)-5-fluoro-2-((8-(methylamino)quinolin-6-yl)amino)-nicotinamide], for which the IC50 under setting [1] is less than 10 nM.
In the case of `NC(=O)c1cc(F)c(NC2CCCCC2N)nc1Nc1cncc(NC(=O)c2ccc(OC(F)(F)F)cc2)c1` (centres unmarked) [Example 027-016], under setting [1], the IC50 was 100 to 1000 nM.
Consider `NCCNc1nc(Nc2cccc(C(=O)NC3CCCCC3)c2)c(C(N)=O)cc1F` [Example 31-3, 6-((2-aminoethyl)amino)-2-((3-(cyclohexylaminocarbonyl)phenyl)amino)-5-fluoronicotinamide], for which the IC50 under setting [2] is no more than 1000 nM.
On to `CCOCCOCCOc1nccc2c(Nc3nc(N[C@@H]4CCCC[C@@H]4N)c(F)cc3C(N)=O)cccc12` (relative stereo) [Example 004-158, 6-(cis-2-aminocyclohexylamino)-2-((1-(2-(2-ethoxyethoxy)ethoxy)isoquinolin-5-yl)amino)-5-fluoronicotinamide], for which the IC50 under setting [1] lay in the range of 10 to 50 nM.
Consider `NC(=O)c1cc(F)c(N[C@@H]2CCCC[C@@H]2N)nc1Nc1cncc(Oc2ccccc2)c1` [Example 004-041], for which the IC50 under setting [1] fell in the range of 50 to 100 nM.
Same read-out and setting: the value for `NC(=O)c1cc(F)c(NCc2cnc[nH]2)nc1Nc1cnc2ccccc2c1` [Example 012-020] was 100 to 1000 nM.
Same read-out and setting: the value for `CC(=O)Nc1ccc(-c2cncc(Nc3nc(N[C@@H]4CCCC[C@@H]4N)c(F)cc3C(N)=O)c2)cc1` [Example 004-224] was less than 10 nM; that for `COC(C)CCOc1cc(Nc2nc(NC3CCCCC3N)c(F)cc2C(N)=O)ccn1` (centres unmarked) [Example 002-085] was 10 to 50 nM.
On to `COCCNc1cccc2cc(Nc3nc(N[C@@H]4CCCC[C@@H]4N)c(F)cc3C(N)=O)cnc12` [Example 004-122], for which, under setting [1], the IC50 was less than 10 nM.
`Cn1cccc1-c1cncc(Nc2nc(NCCN)c(F)cc2C(N)=O)c1` [Example 006-090, 6-((2-aminoethyl)amino)-5-fluoro-2-((5-(1-methyl-1H-pyrrol-2-yl)pyridin-3-yl)amino)nicotinamide]: the IC50 under setting [1] is 100 to 1000 nM.
For the molecule `CC(C)COCCOc1nccc2cc(Nc3nc(N[C@@H]4CCCC[C@@H]4N)c(F)cc3C(N)=O)ccc12` (relative stereo) [Example 004-170, 6-(cis-2-aminocyclohexylamino)-5-fluoro-2-((1-(2-isobutoxyethoxy)isoquinolin-6-yl)amino)-nicotinamide], under setting [1], the half-inhibitory concentration (IC50) is less than 10 nM.
As for `NC(=O)c1cc(F)c(N[C@@H]2CCCC[C@@H]2N)nc1Nc1cncc(N2CCCCC2=O)c1` (relative stereo) [Example 004-108, 6-(cis-2-aminocyclohexylamino)-5-fluoro-2-((5-(2-oxopiperidine-1-yl)pyridin-3-yl)amino)-nicotinamide], the IC50 under setting [1] is 100 to 1000 nM.
Still for that read-out and setting: the value for `NC(=O)c1cc(F)c(NC2CCCCC2N)nc1Nc1cncc(NC(=O)c2cccc(Cl)c2)c1` (centres unmarked) [Example 027-008] was 10 to 50 nM; that for `COCCn1cc2c(Nc3nc(NC4CCCCC4N)c(F)cc3C(N)=O)cccc2n1` (centres unmarked) [Example 002-034] was less than 10 nM.
With `NC(=O)c1cc(F)c(NC2CCCCC2N)nc1Nc1cncc(NC(=O)c2cccs2)c1` (centres unmarked) [Example 027-031], the IC50 under setting [1] was less than 10 nM.
With `CCOC(=O)c1c(F)cc2c(Nc3nc(N[C@@H]4CCCC[C@@H]4N)c(F)cc3C(N)=O)cccn12` [Example 004-115], the half-maximal inhibitory concentration (IC50) under setting [1] was less than 10 nM.
Turning to `CC(=O)Nc1cc(Nc2nc(N[C@@H]3CCCC[C@@H]3N)c(F)cc2C(N)=O)ccn1` (relative stereo) [Example 004-048], under setting [1], the IC50 lay within 10 to 50 nM.
For `NC(=O)c1cc(F)c(NC2CCCC[C@@H]2N)nc1Nc1ccnc2c1ccn2CC(=O)N1CCCCC1` (some centres unmarked) [Example 029-005], under setting [1], the IC50 is less than 10 nM.
On to `COc1cc(Nc2nc(NC3CCN(C(=O)OCc4ccccc4)CC3N)c(F)cc2C(N)=O)ccn1` [Example 006-530, (3S,4R)-benzyl 3-amino-4-((5-carbamoyl-3-fluoro-6-((2-methoxypyridin-4-yl)amino)pyridin-2-yl)amino)piperidine-1-carboylate and (3R,4S)-benzyl 3-amino-4-((5-carbamoyl-3-fluoro-6-((2-methoxypyridin-4-yl)amino)pyridin-2-yl)amino)piperidine-1-carboxylate(=1:1)], for which the IC50 under setting [1] was less than 10 nM.
Regarding `CC(C)Oc1nccc2cc(Nc3nc(N[C@@H]4CCCC[C@@H]4N)c(F)cc3C(N)=O)ccc12` (relative stereo) [Example 004-166, 6-(cis-2-aminocyclohexylamino)-5-fluoro-2-((1-isopropoxyisoquinolin-6-yl)amino)-nicotinamide], under setting [1], the IC50 was less than 10 nM.
The same measure, in the same setting: the result for `COc1cc(Nc2nc(N[C@H](CC3CC3)[C@H](C)N)c(F)cc2C(N)=O)cc(OC)n1` [Example 006-349, 6-(((2R,3S)-3-amino-1-cyclopropylbutan-2-yl)amino)-2-((2,6-dimethoxypyridin-4-yl)amino)-5-fluoronicotinamide] reads less than 10 nM; that for `NC(=O)c1cc(F)c(NC2CCCCC2N)nc1Nc1cncc(NC(=O)c2ccccc2OC(F)(F)F)c1` (centres unmarked) [Example 027-026], 50 to 100 nM.
Take `NC(=O)c1cc(F)c(NC2CCCCC2N)nc1Nc1ccc(NCCCN2CCOCC2)nc1` (centres unmarked) [Example 002-081]: under setting [1], the IC50 lay in the range of 10 to 50 nM.
In the case of `COc1cc(Nc2nc(NCCC(N)=O)c(F)cc2C(N)=O)cc(OC)c1` [Example 033-003], the IC50 under setting [1] lay within 100 to 1000 nM.
`CCC[C@@H](Nc1nc(Nc2cccc3cccnc23)c(C(N)=O)cc1F)[C@H](C)N` [Example 006-243, 6-(((2S,3R)-2-aminohexan-3-yl)amino)-5-fluoro-2-((quinolin-8-yl)amino)nicotinamide]: the IC50 under setting [1] lay in the range of 10 to 50 nM.
In the case of `COCCOc1nccc2c(Nc3nc(NC4CCCCC4N)c(F)cc3C(N)=O)cccc12` (centres unmarked) [Example 002-102], the IC50 under setting [1] is 10 to 50 nM.
For the molecule `CN(C)C(=O)Cn1ccc2c(Nc3nc(N[C@@H]4CCCC[C@@H]4N)c(F)cc3C(N)=O)ccnc21` [Example 029-004], the IC50 under setting [1] is less than 10 nM.
With `CC(C)C[C@@H](CN)Nc1nc(Nc2ccc3ncccc3c2)c(C(N)=O)cc1F` [Example 006-203, (S)-6-((1-amino-4-methylpentan-2-yl)amino)-5-fluoro-2-((quinolin-6-yl)amino)nicotinamide], the IC50 under setting [1] lay in the range of 100 to 1000 nM.
Regarding `COCCOc1ccc2ccc(Nc3nc(NC4CCCCC4N)c(F)cc3C(N)=O)cc2n1` (centres unmarked) [Example 002-090], under setting [1], the IC50 was less than 10 nM.
With `COc1cc(Nc2nc(N[C@@H](C(N)=O)c3ccccc3)c(F)cc2C(N)=O)cc(OC)c1` [Example 16-17, 6-(((1R)-2-amino-2-oxo-1-phenylethyl)amino)-2-((3,5-dimethoxyphenyl)amino)-5-fluoronicotinamide], the concentration for half-maximal inhibition (IC50) under setting [2] is no more than 1000 nM.
For `NC(=O)c1cc(F)c(NC2CCCCC2N)nc1Nc1cncc(-c2cccc3cnccc23)c1` (centres unmarked) [Example 002-179], under setting [1], the IC50 lay within 50 to 100 nM.
Regarding `COc1ccccc1-c1cc(Nc2nc(NC3CCCCC3N)c(F)cc2C(N)=O)ccn1` (centres unmarked) [Example 002-132], the IC50 under setting [1] lay in the range of 10 to 50 nM.
Still for that read-out and setting: the result for `CC(C)C[C@@H](Nc1nc(Nc2ccc3c(c2)c(N2CCOCC2)nn3C)c(C(N)=O)cc1F)[C@H](C)N` [Example 006-562, 6-(((2S,3R)-2-amino-5-methylhexan-3-yl)amino)-5-fluoro-2-((1-methyl-3-morpholino-1H-indazol-5-yl)amino)nicotinamide] reads less than 10 nM; that for `COc1ccc(-c2cc(Nc3nc(NC4CCCCC4N)c(F)cc3C(N)=O)ccn2)c(OC)c1` (centres unmarked) [Example 002-136], 50 to 100 nM.
As to `Cc1cc(Nc2nc(NC3CCCCC3N)c(F)cc2C(N)=O)cc(C)n1` (centres unmarked) [Example 002-022], the 50% inhibitory concentration (IC50) under setting [1] lay within 10 to 50 nM.
On to `NC(=O)c1cc(F)c(NC2CCCCC2N)nc1Nc1ccnc(-c2ccc3cccnc3c2)c1` (centres unmarked) [Example 002-192], for which the IC50 under setting [1] is less than 10 nM.
Same read-out and setting: the value for `NC(=O)c1cc(F)c(N[C@@H](CO)Cc2ccccc2)nc1Nc1ccc2ncccc2c1` [Example 012-023] was 100 to 1000 nM.
`COc1cc(Nc2nc(N[C@H]3CCCC[C@H]3N)c(F)cc2C(N)=O)cc(OC)n1` [Example 006-115, 6-((1S,2R)-2-aminocyclohexylamino)-2-((2,6-dimethoxypyridin-4-yl)amino)-5-fluoronicotinamide]: the IC50 under setting [1] was in the range of 100 to 1000 nM.
For the molecule `COc1cc(-c2cncc(Nc3nc(N[C@@H]4CCCC[C@@H]4N)c(F)cc3C(N)=O)c2)ccn1` (relative stereo) [Example 004-232, 6-((cis-2-aminocyclohexyl)amino)-5-fluoro-2-((2′-methoxy-[3,4′-bipyridine]-5-yl)amino)nicotinamide], the IC50 under setting [1] was less than 10 nM.
Still for that read-out and setting: the result for `NC(=O)c1cc(F)c(N[C@@H]2CCCC[C@@H]2N)nc1Nc1cnc2c(NS(=O)(=O)c3cccnc3)cccc2c1` (relative stereo) [Example 41-8, 6-(cis-2-aminocyclohexylamino)-5-fluoro-2-((8-(pyridin-3-sulphonamide)quinolin-3-yl)amino)nicotinamide] reads 10 to 50 nM.
As for `NC(=O)c1cc(F)c(N[C@@H]2CCCC[C@@H]2N)nc1Nc1cccc2nsnc12` (relative stereo) [Example 6-68, 6-(cis-2-aminocyclohexylamino)-2-(benzo[c][1,2,5]thiadiazol-4-ylamino)-5-fluoronicotinamide], the IC50 under setting [2] was no more than 1000 nM.
As for `NC(=O)c1cc(F)c(NC2CCCCC2N)nc1Nc1ccc2cc(Cl)cnc2c1` (centres unmarked) [Example 002-087], the IC50 under setting [1] is 10 to 50 nM.
For `NC(=O)c1cc(F)c(N[C@@H]2CCCC[C@@H]2N)nc1Nc1cncc(NC(=O)c2ccno2)c1` (relative stereo) [Example 027-036, N-(5-(6-(cis-2-aminocyclohexylamino)-3-carbamoyl-5-fluoropyridin-2-yl)aminopyridin-3-yl)isoxazole-5-carboxamide], the IC50 under setting [1] is less than 10 nM.
As for `NC(=O)c1cc(F)c(NC2CCCCC2N)nc1Nc1cncc(C2CCCCC2)c1` (centres unmarked) [Example 002-096], the IC50 under setting [1] is 10 to 50 nM.

For the origin of these results see US8895585B2, “Nicotinamide derivative or salt thereof” (FUJIFILM Corporation, priority 2010, dated 2014).
